Converted amounts (≈) assume the structure as drawn. Like-named read-outs stand apart in the source and are kept apart here.
Columns and labels:
Fusobacterium = assay: MIC by microdilution in Brucella broth against Fusobacterium; format: cell-based, Fusobacterium spp.; conditions: read-out: MIC
C. perfringens MH310 = assay: microbe, parasite or virus in culture; format: cell-based; conditions: Clostridium perfringens, MH310, C. perfringens MH310
Escherichia coli strains = assay: MIC by microdilution in Mueller-Hinton broth against Escherichia coli strains; format: cell-based; conditions: Escherichia coli, Mueller-Hinton broth, read-out: MIC
Enterococci faecium = assay: MIC by microdilution in Mueller-Hinton broth against Enterococci faecium strains; format: cell-based, Enterococcus faecium; conditions: Enterococcus faecium, Mueller-Hinton broth, read-out: MIC
Lactobacillus strains = assay: MIC against Lactobacillus strains; format: cell-based, Lactobacillus spp.; conditions: for MIC: broth microdilution, BHI with 0.02% Tween 80, pH 6.0, read-out: MIC
Bacteroides Strains = assay: MIC by microdilution in Brucella broth against Bacteroides strains; format: cell-based, Bacteroides spp.
[1] = tested on: Staphylococcus aureus strains; assay: MIC by microdilution in Mueller-Hinton broth against Staphylococcus aureus strains; format: cell-based; conditions: Staphylococcus aureus
[2] = tested on: Lachnospiraceae and related bacterial strains; assay: MIC against Lachnospiraceae and related bacterial strains; format: cell-based, Lachnospiraceae spp.; conditions: for MIC: broth microdilution, brucella broth, read-out: MIC
C. difficile VPI10463 = conditions: Clostridioides difficile, −fecal extract, C. difficile VPI10463
C. difficile = assay: Minimum bactericidal concentration (MBC) against C. difficile; format: cell-based, Clostridium difficile; conditions: Clostridioides difficile, CD strain VPI 10463; BHI; Table 19 formulations; read-out: MBC
Enterococcus faecalis = assay: MIC by microdilution in Mueller-Hinton broth against Enterococcus faecalis strains; format: cell-based; conditions: Enterococcus faecalis
CD strains = assay: In vitro activity of CFM + additional antimicrobial agent against CD (MIC alone/combination, FIC, ΣFIC); format: cell-based, Clostridium difficile; conditions: CFM + MET; for MIC: Clostridioides difficile, read-out: MIC alone
[3] = Test 14, CD strain BAA1805 (BI/NAP1/027)

## Cc1ncc([N+](=O)[O-])n1CCO [MET, metronidazole]
Fusobacterium; F. nucleatum HM-75, Brucella broth
  MIC: 0.062 µg/mL (≈ 0.362 µM)
Fusobacterium; F. nucleatum HM-993, Brucella broth
  MIC: ≤ 0.031 µg/mL
Fusobacterium; F. nucleatum HM-996, Brucella broth
  MIC: 0.5 µg/mL (≈ 2.92 µM)
Fusobacterium; F. nucleatum HM-997, Brucella broth
  MIC: 0.25 µg/mL (≈ 1.46 µM)
Fusobacterium; Fusobacterium, Fusobacterium sp. HM 57, Brucella broth
  MIC: 0.5 µg/mL (≈ 2.92 µM)
Fusobacterium; Fusobacterium, Fusobacterium spp. strains of Table 12 (all strains)
  MIC: 0.031 to 0.5 µg/mL (≈ 0.181 to 2.92 µM)
C. perfringens MH310; BB
  MIC: 2 µg/mL (≈ 11.7 µM)
C. perfringens MH310; BHI
  MIC: 1 µg/mL (≈ 5.84 µM)
Escherichia coli strains; Escherichia coli strain NR 6
  MIC: > 32 µg/mL
Escherichia coli strains; Escherichia coli strain NR 8
  MIC: > 32 µg/mL
Escherichia coli strains; Escherichia coli strain NR 96
  MIC: > 32 µg/mL
Escherichia coli strains; Escherichia coli strain NR 104
  MIC: > 32 µg/mL
Escherichia coli strains; Escherichia coli strain NR 17626
  MIC: > 32 µg/mL
Escherichia coli strains; Escherichia coli strain NR 17627
  MIC: > 32 µg/mL
Escherichia coli strains; Escherichia coli strain NR 17633
  MIC: > 32 µg/mL
Escherichia coli strains; Escherichia coli strain NR 17647
  MIC: > 32 µg/mL
Escherichia coli strains; Escherichia coli strain NR 17650
  MIC: > 32 µg/mL
Escherichia coli strains; Escherichia coli strain NR 17661
  MIC: > 32 µg/mL
Enterococci faecium; E. faecium NR 31903
  MIC: > 32 µg/mL
Enterococci faecium; E. faecium NR 31909
  MIC: > 32 µg/mL
Enterococci faecium; E. faecium NR 31912
  MIC: > 32 µg/mL
Enterococci faecium; E. faecium NR 31915
  MIC: > 32 µg/mL
Enterococci faecium; E. faecium NR 31916
  MIC: > 32 µg/mL
Lactobacillus strains; Lactobacillus, pH 6, Lactobacillus jhonsonii HM-643
  MIC: > 32 µg/mL
Lactobacillus strains; Lactobacillus, pH 6, Lactobacillus sp. HM-228
  MIC: > 32 µg/mL
Lactobacillus strains; Lactobacillus, pH 6, Lactobacillus sp. HM-478
  MIC: > 32 µg/mL
Lactobacillus strains; pH 6, Lactobacillus crispatus HM-637
  MIC: > 32 µg/mL
Lactobacillus strains; pH 6, Lactobacillus gasseri HM-104
  MIC: > 32 µg/mL
Lactobacillus strains; pH 6, Lactobacillus iners HM-126
  MIC: > 32 µg/mL
Lactobacillus strains; pH 6, Lactobacillus jensenii HM-105
  MIC: > 32 µg/mL
Lactobacillus strains; pH 6, Lactobacillus reuteri HM-102
  MIC: > 32 µg/mL
Lactobacillus strains; pH 6, Lactobacillus rhamnosus HM-106
  MIC: > 32 µg/mL
Lactobacillus strains; pH 6, Lactobacillus vaginalis HM-405
  MIC: > 32 µg/mL
Lactobacillus strains; ten strains tested
  in vitro activity against Lactobacillus spp. (in words): essentially inactive
Bacteroides Strains; B. caccae HM728, read-out: MIC
  MIC: 0.25 µg/mL (≈ 1.46 µM)
Bacteroides Strains; B. eggerthii HM210, read-out: MIC
  MIC: 0.5 µg/mL (≈ 2.92 µM)
Bacteroides Strains; B. fragilis HM709, read-out: MIC
  MIC: 1 µg/mL (≈ 5.84 µM)
Bacteroides Strains; B. fragilis HM710, read-out: MIC
  MIC: 0.5 µg/mL (≈ 2.92 µM)
Bacteroides Strains; B. fragilis HM714, read-out: MIC
  MIC: 1 µg/mL (≈ 5.84 µM)
Bacteroides Strains; B. ovatus HM222, read-out: MIC
  MIC: 0.5 µg/mL (≈ 2.92 µM)
Bacteroides Strains; B. stercoris HM1036, read-out: MIC
  MIC: 0.25 µg/mL (≈ 1.46 µM)
Bacteroides Strains; Bacteroides, B. spp. HM18
  MIC: 4 µg/mL (≈ 23.4 µM)
Bacteroides Strains; Bacteroides, B. spp. HM19
  MIC: 1 µg/mL (≈ 5.84 µM)
Bacteroides Strains; Bacteroides, B. spp. HM22
  MIC: 0.5 µg/mL (≈ 2.92 µM)
Bacteroides Strains; Bacteroides, B. spp. HM23, read-out: MIC
  MIC: 0.25 µg/mL (≈ 1.46 µM)
Bacteroides Strains; Bacteroides, B. spp. HM27
  MIC: 0.5 µg/mL (≈ 2.92 µM)
Bacteroides Strains; Bacteroides, B. spp. HM28
  MIC: 2 µg/mL (≈ 11.7 µM)
Bacteroides Strains; Bacteroides, B. spp. HM58
  MIC: 2 µg/mL (≈ 11.7 µM)
[1]; Staphylococcus aureus strain NR 10129, read-out: MIC
  MIC: > 32 µg/mL
[1]; Staphylococcus aureus strain NR 10186, read-out: MIC
  MIC: > 32 µg/mL
[1]; Staphylococcus aureus strain NR 10187, read-out: MIC
  MIC: > 32 µg/mL
[1]; Staphylococcus aureus strain NR 10188, read-out: MIC
  MIC: > 32 µg/mL
[1]; Staphylococcus aureus strain NR 10189, read-out: MIC
  MIC: > 32 µg/mL
[1]; Staphylococcus aureus strain NR 10191, read-out: MIC
  MIC: > 32 µg/mL
[1]; Staphylococcus aureus strain NR 10192, read-out: MIC
  MIC: > 32 µg/mL
[1]; Staphylococcus aureus strain NR 10193, read-out: MIC
  MIC: > 32 µg/mL
[1]; Staphylococcus aureus strain NR 10194, read-out: MIC
  MIC: > 32 µg/mL
[1]; Staphylococcus aureus strain NR 10198, read-out: MIC
  MIC: > 32 µg/mL
[2]; Clostridiales bacterium, Clostridiales bacterium HM-84
  MIC: 0.25 µg/mL (≈ 1.46 µM)
[2]; Clostridiales bacterium, Clostridiales bacterium HM-182
  MIC: ≤ 0.031 µg/mL
[2]; Eubacterium sp. HM-178
  MIC: 1 µg/mL (≈ 5.84 µM)
[2]; Lachnospiraceae sp. HM-7
  MIC: 0.25 µg/mL (≈ 1.46 µM)
[2]; Lachnospiraceae sp. HM-150
  MIC: 0.25 µg/mL (≈ 1.46 µM)
[2]; Lachnospiraceae sp. HM-153
  MIC: 0.062 µg/mL (≈ 0.362 µM)
[2]; Lachnospiraceae sp. HM-157
  MIC: 0.25 µg/mL (≈ 1.46 µM)
[2]; Lachnospiraceae sp. HM-480
  MIC: 0.5 µg/mL (≈ 2.92 µM)
[2]; Lachnospiraceae sp. HM-558
  MIC: 0.5 µg/mL (≈ 2.92 µM)
[2]; Lachnospiraceae sp. HM-768
  MIC: 0.5 µg/mL (≈ 2.92 µM)
[2]; Lachnospiraceae sp. HM-868
  MIC: 16 µg/mL (≈ 93.5 µM)
[2]; Peptostreptococcaceae sp. HM-766
  MIC: 0.5 µg/mL (≈ 2.92 µM)
[2]; most of the members of this family
  susceptibility of Lachnospiraceae and related organisms (in words): susceptible
C. difficile VPI10463; VPI10463, Expt. 1
  MIC: 0.062 µg/mL (≈ 0.362 µM)
C. difficile VPI10463; VPI10463, Expt. 2
  MIC: 0.062 µg/mL (≈ 0.362 µM)
C. difficile
  MBC: 0.25 µg/mL (≈ 1.46 µM)
Enterococcus faecalis; E. faecalis NR 31884, read-out: MIC
  MIC: > 32 µg/mL
Enterococcus faecalis; E. faecalis NR 31885, read-out: MIC
  MIC: > 32 µg/mL
Enterococcus faecalis; E. faecalis NR 31886, read-out: MIC
  MIC: > 32 µg/mL
Enterococcus faecalis; E. faecalis NR 31887, read-out: MIC
  MIC: > 32 µg/mL
Enterococcus faecalis; E. faecalis NR 31888, read-out: MIC
  MIC: > 32 µg/mL
CD strains; BAA1805, Test 14, CD strain BAA1805 (BI/NAP1/027)
  MIC: 16 µg/mL
CD strains; BAA1805, Test 15, CD strain BAA1805 (BI/NAP1/027)
  MIC: 32 µg/mL
CD strains; BAA1805, Test 17, CD strain BAA1805 (BI/NAP1/027)
  MIC: 32 µg/mL
CD strains; Test 8, CD strain NR32885
  MIC: 2 µg/mL
  MIC combination: 0.25 µg/mL
CD strains; Test 10, CD strain NR32885
  MIC: 1 µg/mL
  FIC: 0.25
  MIC combination: 0.25 µg/mL
CD strains; Test 12, CD strain NR32885
  MIC: 1 µg/mL
  FIC: 0.25
  MIC combination: 0.25 µg/mL
CD strains; Test 19, CD strain NR32888
  MIC: 2 µg/mL
  FIC: 0.062
CD strains; Test 21, CD strain NR32888
  MIC: 2 µg/mL
  FIC: 0.25
  MIC combination: 0.5 µg/mL
CD strains; Test 3, CD strain VPI 10463
  FIC: 0.5
  MIC combination: 0.062 µg/mL
CD strains; Test 4, CD strain VPI 10463
  FIC: 0.5
  MIC combination: 0.062 µg/mL
CD strains; [3]
  FIC: 0.015
  MIC combination: 0.25 µg/mL
CD strains; Test 15, CD strain BAA1805 (BI/NAP1/027)
  MIC combination: 4 µg/mL
CD strains; Test 17, CD strain BAA1805 (BI/NAP1/027)
  MIC combination: 4 µg/mL

Source: patent publication US9849130B2 (KamTek, Inc., priority 2014, dated 2017)
